According to US10617763B2, “Compositions and methods for the treatment of presbyopia” (Presbyopia Therapies, LLC, priority 2013, dated 2020):
Where “and” joins values, the source holds several entries; their conditions need not be identical. Equal values may be shown once. Read-outs that look alike come from different tables or passages of the source.

Columns and labels:
eye [1] = settings: cited from earlier work
eye [2] = assay: Compositions containing mannitol with various nonionic surfactants (Example 15, Table 10); set-up: species or system human; settings: in vivo
Source text: Example 15. Use of a Compound Containing Mannitol with Various Nonionic Surfactants Compositions
Of those tested only Brij® 35 was marginal due to the significant corneal irritation, hyperemia and […] that resulted.
Duration was excellent for each nonionic surfactant tested.

eye [3] = settings: for indoor night vision: pH 7.5; for dimming: pH 7.0
Source text: However, because α-2 agonists are shifted to their ionized equilibrium an acidic pH is somewhat offset by the fact such agonists exert greater affect at neutral or alkaline pH. Therefore each α-2 agonist has a preferred pH range depending on its lipophilicity and pKa value when added to the inventive compositions with aceclidine.

eye [4] = assay: Effect of concentration of aceclidine, brimonidine, guanfacine, fadolmidine, tropicamide and additives (Example 3); type: in vivo, human
Procedure: All percentages are w/v. Scores for nasal congestion, stinging initial, stinging, 3 min, redness initial, redness 15 min, whitening, pain and overall are out of 4.
“pt” reflects size of print materials, 4 being equivalent to 20/20 vision and 3 to 20/15 vision.
D/C stands for discontinued after eye washing due to intolerable stinging.
(§1) All baseline vision data was based on vision corrected with distance contact lenses.
AB4T and AB6T were repeated both monocularly and binocularly.

[5] = Stability of aceclidine in cold chain storage, HPLC (Example 10); type: physicochemical; settings: Example 10 composition
Procedure: Example 10 Stabile Aceclidine Formulations
20 samples of the above composition were divided evenly and stored at 25° C. and 4° C. Prior to storage, initial concentrations of aceclidine were measured using […] (“HPLC”). The amount of aceclidine in each solution was calculated by the area under the principal peak compared to a reference solution of aceclidine. Samples were then subject to storage for 3 months. Aceclidine measurements were taken at 1, 2 and 3 months.

presbyopic subjects = assay: Effect of aceclidine on vision of subjects aged 47 to 67 years (Example 1); type: in vivo, human; settings: for L Post Dist / L Post Near / R Post Dist / R Post Near: Post Gtt 15″; for L Post Dist: left eye distance vision; for L Post Near: left eye near vision; for R Post Dist: right eye distance vision; for R Post Near: right eye near vision; for Effect: duration of effect
Procedure: Example 1 Effect of Aceclidine on Vision of Subjects Aged 47 to 67 Years
As aceclidine is an […], the clinical effectiveness may vary with different ratios. For the present studies a nearly exact 50:50 ratio of stereoisomers was measured as best determined by polarimetry.
After administration of the composition all subjects experienced an improvement in their near vision that lasted from 7 to 12 hours.

[6] = tested on: emmetrope over the age of 45; assay: Effects of pilocarpine and aceclidine with or without tropicamide and carrier on near and distance vision (FIG. 1); type: in vivo, human
Source text: Subject is an emmetrope over the age of 45 with a baseline near vision of 20.100 and baseline distance vision of 20.20. Topical administration to the eye of 1% w/v pilocarpine in saline solution results in an improvement of near vision to 20.40 (8a), however this improvement comes at the expense of a reduction in distance vision to 20.100 (8b). […] A proper drug carrier can also have a beneficial effect.

eye [7] = assay: Effect of concentration of aceclidine and tropicamide, topical instillation (Example 2); type: in vivo, human
Source text: as §1

eye [8] = assay: Modulation of aceclidine concentrations in a preferred embodiment (Example 6); type: in vivo, human
Procedure: Example 6 Modulation of Aceclidine Concentrations in a Preferred Embodiment
For 1.35% w/v aceclidine— • Stinging on topical instillation 0.25/4.0 (lasting about 2-5 seconds); • Induced redness at 10 minutes: 1.0 to 1.5/4.0; • Induced redness at 30 minutes: 0.0 to 0.25/4.0; • Comfort: very high. • Wetting: very high, the eye maintaining sensation of improved wetting for most of a 24 hour period after a single topical instillation. • Depth of Focus distance: excellent. • Depth of Focus near: excellent.
In testing the above formulations on several subjects it was discovered that there is a slight range in clinical effect depending on the concentration of aceclidine, where 1.35%-1.55% w/v aceclidine is preferred, but for which 1.35% w/v and 1.45% w/v confer the desired benefits on most subjects.
Further, it is discovered that the clinical effect of 1.35% w/v aceclidine can be improved when instilled as follows: […]

[9] = aceclidine 1.1% w/v plus 0.125% w/v tropicamide (subjects 4 and 5)
[10] = aceclidine 1.5% w/v, same vehicle, one subject

Compound: CC[C@@H]1C(=O)OC[C@@H]1Cc1cncn1C [pilocarpine]
- distance blur (eye [1]; pilocarpine instilled monocularly): 2-3 lines
- pupil size (eye [1]; upon instillation of 1.0% pilocarpine, most subjects): ≥ 2.3 mm

Compound: Brc1c(NC2=NCCN2)ccc2nccnc12 [brimonidine]
- rebound redness, patients (eye [1]; brimonidine 0.20% w/v (Alphagan®) twice daily): 25%
- tachyphylaxis of pupil modulation, treated subjects (eye [1]; brimonidine 0.20% w/v topically for night vision, within four weeks of use): ~100%

Compound: Tyloxapol
- Redness 1 hr (eye [2]): 0.25-2.5
- Stinging (eye [2]): 0-2

Compound: tropicamide
- indoor night vision (eye [3]; 0.035% w/v tropicamide in 1.55% w/v aceclidine composition): slight dimming
- dimming (eye [3]; 0.040% w/v tropicamide in 1.53% or 1.45% w/v aceclidine composition): moderate dimming
- indoor night vision (eye [3]; 0.042% w/v tropicamide in 1.55% w/v aceclidine composition): normal indoor night vision
- dimming (eye [3]; 0.044% w/v tropicamide in 1.53% or 1.45% w/v aceclidine composition): dimming became almost undetectable
- brow ache (eye [3]; tropicamide 0.01% w/v with aceclidine): slightly reduce brow ache
- brow ache (eye [3]; tropicamide 0.030% w/v with aceclidine): further reduce brow ache
- brow ache (eye [3]; tropicamide 0.04% to about 0.07% w/v with aceclidine): completely eliminate brow ache

Compound: Poloxamer 407
- Redness 1 hr (eye [2]): 1
- Stinging (eye [2]): 0.5

Compound: Poloxamer 188
- Redness 1 hr (eye [2]): 0.25-2.5
- Stinging (eye [2]): 0-2

Compound: Polysorbate 80
- Redness 1 hr (eye [2]): 0.5
- Stinging (eye [2]): 0.25

Compound: CC(=O)OC1CN2CCC1CC2 (racemic) [Aceclidine, aceclidine]
- anterior chamber shallowing (eye [3]; with further inclusion of a cycloplegic agent): 0.04 mm
- near vision improvement (eye [4]; aceclidine 1.25% w/v (not shown)): 20.25-20.30
- duration of corrected near and distance vision to 20.20 or better (eye [4]; aceclidine 1.55% w/v): at least 6 hours
- size of the pupil (eye [4]; aceclidine 1.55% w/v, 30 minutes after topical instillation): about 1.63 mm
- duration (hrs) (eye [4]; in vivo): about 7.5 hrs
- aceclidine remaining, 4° C., 1 month [5]: 93%
- aceclidine remaining, 4° C., 2 months [5]: 92%
- aceclidine remaining, 4° C., 3 months [5]: 88%
- aceclidine remaining, 4° C., Initial [5]: 100%
- aceclidine remaining, 25° C., 1 month [5]: 92%
- aceclidine remaining, 25° C., 2 months [5]: 75%
- aceclidine remaining, 25° C., 3 months [5]: 50%
- aceclidine remaining, 25° C., Initial ([5]; pH about 4.75): 100%
- L Post Dist (presbyopic subjects; [9]): 20.15 and 20.20
- L Post Dist (presbyopic subjects; [10]): 20.20 (2×) and 20.30 and 20.25 (2×)
- L Post Near (presbyopic subjects; [9]): 20.15 and 20.25
- L Post Near (presbyopic subjects; [10]): 20.15 (3×) and 20.30 and 20.20
- R Post Dist (presbyopic subjects; [9]): 20.15 and 20.20
- R Post Dist (presbyopic subjects; aceclidine 1.5% w/v in 5.5% HPβCD, 0.75% CMC, 0.25% NaCl, 0.01% BAK, one subject): 20.20 (3×) and 20.25 (2×)
- R Post Near (presbyopic subjects; [9]): 20.20 and 20.25
- R Post Near (presbyopic subjects; [10]): 20.15 (3×) and 20.20 and 20.25
- Effect (presbyopic subjects; [9]): 12.00 h and 7.00 h
- Effect (presbyopic subjects; [10]): 8.00 h (4×) and 9.00 h
- time period of near vision improvement ([6]; 1.55% w/v aceclidine in saline solution): 6 h
- near vision ([6]; aceclidine in carrier plus 0.042% w/v tropicamide): 20.15
- near vision ([6]; aceclidine in carrier: 5.5% HPβCD, 0.75% CMC, 0.25% NaCl, 0.01% BAK): better than 20.20
- distance vision ([6]; miotic in saline solution (1% w/v pilocarpine; 1.55% w/v aceclidine), baseline distance vision 20.20): without any effect on the baseline distance vision
- near vision ([6]; miotic in saline solution (1% w/v pilocarpine; 1.55% w/v aceclidine), baseline near vision 20.100): 20.40
- Time (hr) (eye [7]; duration of the effect): at least 10 hr
- Miosis (OU) (1 hr) (eye [7]; pupil size, both eyes, 1 hour after topical instillation, baseline pupil 3 mm photopic, 5 mm mesopic): 1.63 mm
- Comfort (eye [8]; 1.35% w/v aceclidine): very high
- Depth of Focus distance (eye [8]; 1.35% w/v aceclidine): excellent
- Depth of Focus near (eye [8]; 1.35% w/v aceclidine): excellent
- Stinging on topical instillation (eye [8]; 1.35% w/v aceclidine in the preferred embodiment of Example 6, lasting about 2-5 seconds): 0.25 /4.0

Compound: Polyoxyl 35 castor oil
- Redness 1 hr (eye [2]): 0.25
- Stinging (eye [2]): 0
